# Activity calls are given as the source filed them. The rule behind the calls is not given here.
# Test system: Trypanosoma brucei growth inhibition, luminescence
# Assay: antitrypanosomal activity against T. brucei – luminescence (AID 1159562);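 note: parasites grew with compound for 24 h before the luminescence read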
row,Structure (SMILES),IC50
1,COc1ccc(Cl)cc1CC(=O)Nc1n[nH]c(-c2ccccn2)n1,> 40000 nM (inactive)
2,Cc1ccc(S(C)(=O)=O)cc1Nc1nccc(-c2sc(N)nc2-c2ccccc2)n1,1600 nM
3,O=C(Nc1nc(-c2ccc(F)cc2)cs1)c1ccc([N+](=O)[O-])s1,1300 nM
4,CN(C)CCN(C)Cc1ccc(Cl)cc1NS(=O)(=O)c1ccc(Cl)c(Cl)c1,4000 nM
5,COc1ccc(CNc2cc(C3CC3)nc(-c3nccn3C)n2)cc1,2500 nM
6,CN1C(=O)c2ccccc2Sc2ccc(NC(=O)NCc3ccco3)cc21,500 nM
7,Cc1ccc(S(=O)(=O)Nc2ccc(CN3CCN(C(=O)c4cccc(C#N)c4)CC3)cc2)cc1,320 nM
8,O=c1[nH]cnc2c([C@@H]3O[C@H](CO)[C@@H](O)[C@H]3O)[nH]nc12,5 nM
9,COc1cccc(-c2cc(C(F)(F)F)nc(-n3ccc([N+](=O)[O-])n3)n2)c1,> 40000 nM (inactive)
10,Nc1cc(-c2ccc3ncnc(N4CCOCC4)c3c2)cnc1N,160 nM
11,COc1ccc(C(=O)[C@H]2C[C@@H]2CN(Cc2ccccn2)Cc2ccccn2)cc1,16000 nM
12,CNc1cncc(C2CCCN2C(=O)Cc2coc3cc(C)ccc23)n1 (stereo unspecified),> 40000 nM (inactive)
13,O=C(NCc1ccc(Cl)cc1)C1CN(C(=O)c2ccc(F)cc2)CCS1 (stereo unspecified),630 nM
14,COc1cccc(S(=O)(=O)Nc2ccc3c(c2)CC(N2CCC(NC(=O)C4CC4)CC2)C3)c1 (stereo unspecified),790 nM
15,CNC(=O)C1Cc2ccccc2N1C(=O)Cc1ccc(OC)cc1 (stereo unspecified),500 nM
16,O=C(Nc1nc(-c2ccccn2)cs1)c1ccccc1-n1cnnn1,630 nM
17,CCc1ccccc1[C@@H](C)NC(=O)c1cnc2c(cnn2CC)c1NC1CCN(C(N)=O)CC1,500 nM
18,O=C(Nc1nc2cc(Cl)ccc2o1)c1cccc(Cl)c1,790 nM
19,O=S(=O)(c1ccccc1C(F)(F)F)N1CCN(Cc2ccc(-n3ccnc3)cc2)CC1,> 40000 nM (inactive)
20,CCN(CC)c1nc(N(C)C)nc2c1CN(Cc1ccccc1)CC2,20000 nM
21,c1ccc2c(CCOc3nccnc3-c3ccncc3)c[nH]c2c1,40000 nM
22,COCCn1c(-c2ccccc2)cnc1NCc1ccccc1OC,16000 nM

row,Structure (SMILES),IC50
1,Fc1ccccc1N1C[C@H]2CCN(c3cccnc3)C[C@H]2C1,> 40000 nM (inactive)
2,COc1ccc(CNc2nsc3ccccc23)cc1OC,6300 nM
3,COc1cc2c(cc1OC)[C@H]1[C@@H](C)c3ccc(OC)c(OC)c3CN1CC2,> 40000 nM (inactive)
4,CCc1nn(-c2ncc(F)c(NC(C)C)n2)c(N)c1C1CCCCC1,16000 nM
5,Cc1ccc(Nc2nc(-c3ccccn3)cc(N3CCCC(O)C3)n2)cc1 (stereo unspecified),3200 nM
6,c1ccc(CNc2cccc3ccncc23)cc1,> 40000 nM (inactive)
7,Cc1cc(C)cc(NS(=O)(=O)c2cc(-c3cc(C)[nH]n3)ccc2C)c1,2000 nM
8,COc1cc(OC)cc(C(=O)N[C@@H](CC(C)C)C(=O)NC2(C#N)CC2)c1,63 nM
9,Cc1ccccc1CNc1cc(C2CC2)nc(-c2nccn2C)n1,1600 nM
10,COc1ccccc1C=CCN1C[C@H]2CCC[C@@H](C1)C2(O)c1cccnc1 (stereo partly specified),> 40000 nM (inactive)
11,COc1ccc(C(C)N(C)c2ncc3c(N)nc(N)nc3n2)cc1F (stereo unspecified),5000 nM
12,O=C(N1CCc2ccccc2CC1)C1(C(=O)N2CCC(n3c(=O)[nH]c4ncccc43)CC2)CC1,> 40000 nM (inactive)
13,CC(C)(C)C(Cn1ccnc1)NC(=O)c1ccc2nc(C3CC3)oc2c1 (stereo unspecified),> 40000 nM (inactive)
14,CNc1nc(C)nc(N2CCc3cc(C(=O)NCc4ccc(-c5ccn[nH]5)cc4Cl)ccc32)n1,10000 nM
15,COCc1cc(Nc2ccccc2)nc(-c2ccccn2)n1,> 40000 nM (inactive)
16,COc1cnc2ccc(=O)n(CCN3CCC(NC/C=C/c4cc(F)ccc4F)CC3)c2c1,790 nM
17,COc1ccc(OC)c(NC(=O)c2ccc([N+](=O)[O-])o2)c1,63 nM
18,Cc1nn(-c2nc(N)nc(-c3ccccn3)n2)c(C)c1Cc1ccccc1,6300 nM
19,Cc1nc(-c2ccc3c(c2)OCO3)sc1C(=O)NCc1ccc2c(c1)OCO2,> 40000 nM (inactive)
20,CC(C)c1cc(Nc2cc(Cc3ccccc3)nc(NC3CCC(O)CC3)n2)n[nH]1 (stereo unspecified),100 nM
21,COc1ccc(C2CC(c3ccccc3Cl)=NN2C(=O)CNC(=O)C2CCCC2)cc1 (stereo unspecified),790 nM
22,COc1cc(Cl)c(C)cc1NC(=O)c1ccc([N+](=O)[O-])s1,10000 nM

row,Structure (SMILES),IC50
1,O=C(Nc1ccc(C(=O)N2CCCC2c2ccc3c(c2)OCCCO3)cc1)c1ccco1 (stereo unspecified),320 nM
2,O=C(NCCc1csc(-c2cccc(F)c2)n1)c1ccco1,630 nM
3,OCCCNc1nc(Nc2ccncc2)nc2ccccc12,> 40000 nM (inactive)
4,CC(=O)NC1(c2ccccc2)CCN(CC(=O)Nc2ccccc2-c2ccccc2)CC1,500 nM
5,COC(=O)c1ccc(-c2cnc3ccc(NCc4ccccn4)nn23)cc1,1000 nM
6,Cc1c([N+](=O)[O-])c(C(=O)Nc2sc3c(c2C#N)CCC(C)C3)nn1C (stereo unspecified),> 40000 nM (inactive)
7,Cc1c(C(=O)NCCCCn2ccnc2)oc2c(C)cccc12,> 40000 nM (inactive)
8,O=C1COC(c2ccccc2)(c2ccccc2)CN1C1CCN(Cc2ccc(-n3ccnc3)cc2)CC1,1000 nM
9,COc1ccc(C(=O)Nc2c(C)nn(COc3cccc(C(F)(F)F)c3)c2C)cc1,790 nM
10,O=C(CN1CCN(c2ccccn2)CC1)Nc1cc(S(=O)(=O)N2CCCCCC2)ccc1Cl,25000 nM
11,O=C(NCCCn1cnc2ccccc21)c1ccc(NC(=O)c2ccco2)cc1,250 nM
12,N#Cc1c(Oc2cccc(Cl)c2)cccc1[N+](=O)[O-],5 nM
13,CN(CC1CCCO1)S(=O)(=O)c1ccc(C(=O)Nc2nc(-c3ccccn3)cs2)cc1 (stereo unspecified),630 nM
14,Cc1nc(-c2nc(NCc3ccc(Cl)cc3)c3cccnc3c2O)n[nH]1,790 nM
15,CCCn1c(NC(=O)CCn2cc(Br)cn2)nc2ccccc21,7900 nM
16,O=C(CN1CCN(S(=O)(=O)c2cccc([N+](=O)[O-])c2)CC1)Nc1ccc(Oc2ccccc2)cc1,16000 nM
17,CNc1c(C(N)=O)c(-c2ccc3scnc3c2)nn1CC(F)(F)F,> 40000 nM (inactive)
18,O=C(Nc1ncc([N+](=O)[O-])s1)C1CC1,40000 nM
19,Cc1nn(-c2nc(N)nc(-c3ccccn3)n2)c(N)c1-c1ccccc1,6300 nM
20,COc1ccc(OC)c2c(=O)c(Cc3ccccc3)c(C)[nH]c12,> 40000 nM (inactive)
21,CN(Cc1ccccc1)Cc1nnnn1C1CCN(Cc2ccc(-n3ccnc3)cc2)CC1,> 40000 nM (inactive)
22,CN1CCCN(C(=O)c2ccc(N3CCCC3)cc2Cl)CC1,> 40000 nM (inactive)

row,Structure (SMILES),IC50
1,O=C(CC1(O)C(=O)N(Cc2cccs2)c2ccc(Br)cc21)c1cccnc1 (stereo unspecified),790 nM
2,N#Cc1cccc(Nc2nccc(N3CCC(NS(=O)(=O)c4cccc(C#N)c4)CC3)n2)c1,6300 nM
3,N#Cc1cnc(Nc2cccc(CCN3CCOCC3)c2)nc1Nc1ccccc1C(N)=O,250 nM
4,COc1ccc2ncc(Cl)c(CCN3CC[C@H](NCc4cc5c(cn4)OCS5)[C@@H](O)C3)c2n1,630 nM
5,O=C(c1cccc(Nc2ncc(-c3ccc4c(c3)OCO4)cn2)c1)N1CCOCC1,> 50000 nM (inactive)
6,Cc1cc(Nc2cc(C3CC3)[nH]n2)nc(N2CCCC2)n1,63 nM
7,N#Cc1cc(N2CCCC2=O)ccc1Sc1ccccc1CO,32000 nM
8,Clc1ccc(CN2CCN(C3=NCCN3)CC2)cc1Cl,> 40000 nM (inactive)
9,Clc1ccc(C(CC2CCCCO2)Cn2cncn2)c(Cl)c1 (stereo unspecified),> 40000 nM (inactive)
10,CC(C)n1c(-c2nonc2N)nc2cccc(OCCN3CCCC3)c21,790 nM
11,CC(=O)Nc1nc(-c2cc(C)ccc2C)c(C)s1,> 40000 nM (inactive)
12,Cc1cc2cc(CNc3ccc4c(c3)OCO4)c(=O)n(CCO)c2cc1C,> 40000 nM (inactive)
13,Cc1nc2c(-c3ncn[nH]3)cc(NC(=O)Cc3ccccc3)cn2c1C,10000 nM
14,O=c1oc2ccccc2n1C1CCN(Cc2ccccc2-c2cccnc2)CC1,> 40000 nM (inactive)
15,Cc1cccnc1NC(=O)c1cccc(OCc2c(C)noc2C)c1,790 nM
16,C[C@@H](Oc1cc(-n2cnc3cc(N)ccc32)sc1C(N)=O)c1ccccc1Cl,790 nM
17,CC(C)(C)c1cc(NC2CC2)nc(-c2ccccn2)n1,2500 nM
18,Nc1nc(-c2ccccc2)cc(-c2nc3ncccc3[nH]2)n1,16000 nM
19,CCN(CC)S(=O)(=O)c1ccc(OC)c(NC(=O)c2ccc([N+](=O)[O-])s2)c1,630 nM
20,CCCc1cc(C(=O)Nc2ncc(-c3cccc(Br)c3)n2C)n[nH]1,1300 nM
21,CCN(Cc1nc2ccc(C(=O)N3CCN(c4ncccn4)CC3)cc2[nH]1)C1CCCc2cccnc21 (stereo unspecified),5000 nM
22,CCCn1c(NC(=O)Cc2ccc(Cl)cc2)nc2ccccc21,3200 nM

row,Structure (SMILES),IC50
1,CNc1nc(C)nc(N2CCc3cc(C(=O)NCc4ccc(-c5nccn5C)cc4Cl)ccc32)n1,20000 nM
2,CC(C)CC(=O)Nc1cc(C2CC2)nn1-c1nc2c(c(=O)[nH]1)CCCC2,200 nM
3,CC(C)c1nn(-c2nc(N)nc(-c3ccccn3)n2)c(N)c1C1CCCCC1,7900 nM
4,Cc1cc(C)n(-c2nc(NC(C)C)nc(NC(C)(C)C)n2)n1,13000 nM
5,CCOc1ccccc1C(=O)Nc1nnc(-c2ccc3c(c2)OCO3)s1,> 40000 nM (inactive)
6,O=[N+]([O-])c1cccc(Nc2cncc(-c3ccccc3CO)c2)c1,> 40000 nM (inactive)
7,Cc1ccc2onc(Nc3ccnc(Nc4cccc(S(C)(=O)=O)c4)n3)c2c1,7900 nM
8,Cc1cc2nc(CN(C)Cc3ncccc3C)[nH]c2cc1C,630 nM
9,Cc1nn(-c2nc3ccccc3s2)c2c1C(c1ccc(OCC(N)=O)cc1)SCC(=O)N2 (stereo unspecified),32 nM
10,Nc1nonc1-c1nc2cncc(C(=O)N3CC[C@H](N)C3)c2n1CC1CC1,790 nM
11,COc1ccc(NS(=O)(=O)c2cc(-c3cc(C)[nH]n3)ccc2C)cc1OC,630 nM
12,CCC(CC)C(=O)Nc1cccc(C(=O)Nc2nnc(C3CCCCC3)s2)c1,630 nM
13,CCC(c1ccc(F)cc1)n1cncc1-c1cnn(C)c1 (stereo unspecified),> 40000 nM (inactive)
14,COc1ccc(C)cc1-c1csc(NC(=O)C(C)n2ccnc2)n1 (stereo unspecified),> 40000 nM (inactive)
15,COc1ccc(Nc2nc(NC3CCC(O)CC3)ncc2Br)c(C(N)=O)c1 (stereo unspecified),250 nM
16,COc1ccc(C(C)(C)C)cc1S(=O)(=O)n1ccnc1,> 40000 nM (inactive)
17,N#Cc1cccc(CN2CCC(N(Cc3cccnc3)C(=O)c3cc(F)c(F)cc3F)CC2)c1,> 40000 nM (inactive)
18,Cn1ccnc1CN1CCc2[nH]cnc2C1c1ccccc1OCc1ccccc1 (stereo unspecified),500 nM

# Source: PubChem BioAssay AID1159562 (GlaxoSmithKline (GSK), 2015)
